According to patent US20200237742A1, “Serdexmethylphenidate Conjugates, Compositions And Methods Of Use Thereof” (priority 2018, published 2020):
Structures can show the parent of a compound that is named as a salt.

Test system: healthy, nondependent, recreational stimulant users with intranasal insufflation experience
Assay: Intranasal study, treatment-emergent adverse events (Table 54)
Method: The study consisted of a Screening Period, an in-clinic Drug Discrimination Phase, a Treatment Phase, and a Follow-Up Visit.
All subjects were required to fast for at least 8 hours prior to each dose of study drug until approximately 4 hours after each dose. Abuse potential measures and pharmacokinetic samples were collected at different times after the administration of study drug. Subjects who successfully completed the Drug Discrimination Phase and who qualified for the Treatment Phase remained as inpatients to enter the Treatment Phase.

[1] = intranasal, d-MPH HCl 40 mg, SDX Cl 80 mg, N = 46 each

COC(=O)[C@H](c1ccccc1)[C@H]1CCCCN1 [d-methylphenidate hydrochloride, d-threo-methylphenidate hydrochloride]
7 (15.2%) n (%): Headache, subjects with event [1] | Sinus tachycardia, subjects with event [1]
2 E: Anxiety, number of occurrences [1] | Bruxism, number of occurrences [1] | Energy increased, number of occurrences [1] | Muscle tightness, number of occurrences [1] | Reproductive system and breast disorders, number of occurrences [1] | Restlessness, number of occurrences [1] | Somnolence, number of occurrences [1] | Vascular disorders, number of occurrences [1] | Ventricular extrasystoles, number of occurrences [1]
148 E: Any TEAE, number of occurrences [1]
9 E: Tachycardia, number of occurrences [1]
9 (19.6%) n (%): Gastrointestinal disorders, subjects with event [1] | Nervous system disorders, subjects with event [1]
11 (23.9%) n (%): Palpitations, subjects with event [1]
10 (21.7%) n (%): Respiratory, thoracic and mediastinal disorders, subjects with event [1]
6 E: Dry mouth, number of occurrences [1]
2 (4.3%) n (%): Anxiety, subjects with event [1] | Bruxism, subjects with event [1] | Energy increased, subjects with event [1] | Muscle tightness, subjects with event [1] | Reproductive system and breast disorders, subjects with event [1] | Restlessness, subjects with event [1] | Somnolence, subjects with event [1] | Vascular disorders, subjects with event [1] | Ventricular extrasystoles, subjects with event [1]
0 n (%): Abdominal distension, subjects with event [1] | Agitation, subjects with event [1] | Arthralgia, subjects with event [1] | Catheter site haematoma, subjects with event [1] | Catheter site swelling, subjects with event [1] | Chest pain, subjects with event [1] | Claustrophobia, subjects with event [1] | Cough, subjects with event [1] | Dizziness, subjects with event [1] | Dysgeusia, subjects with event [1] | Dyspepsia, subjects with event [1] | Ecchymosis (skin discoloration), subjects with event [1] | Epistaxis (nosebleed), subjects with event [1] | Eye pain, subjects with event [1] | Feeling of relaxation, subjects with event [1] | Head discomfort, subjects with event [1] | Infections and infestations, subjects with event [1] | Irritability, subjects with event [1] | Lacrimation increased, subjects with event [1] | Nasal dryness, subjects with event [1] | Pharyngitis, subjects with event [1] | Phlebitis superficial, subjects with event [1] | Pyrexia, subjects with event [1] | Rhinorrhoea (runny nose), subjects with event [1] | Sneezing, subjects with event [1] | Upper-airway cough syndrome, subjects with event [1] | Vomiting, subjects with event [1]
6 (13.0%) n (%): Dry mouth, subjects with event [1]
3 E: Decreased appetite, number of occurrences [1] | Dry throat, number of occurrences [1] | Eye disorders, number of occurrences [1] | Fatigue, number of occurrences [1] | Feeling hot, number of occurrences [1] | Hyperhidrosis, number of occurrences [1] | Metabolism and nutrition disorders, number of occurrences [1] | Nasal discomfort, number of occurrences [1] | Throat irritation, number of occurrences [1]
29 E: Cardiac disorders, number of occurrences [1] | Euphoric mood, number of occurrences [1]
occurred more often: typical stimulant-related adverse events (euphoric mood, hypervigilance, cardiac palpitations and tachycardia) (intranasal d-MPH HCl compared to intranasal SDX Cl)
29 (63.0%) n (%): Euphoric mood, subjects with event [1]
13 E: General disorders and administration site conditions, number of occurrences [1]
4 (8.7%) n (%): Musculoskeletal and connective tissue disorders, subjects with event [1] | Skin and subcutaneous tissue disorders, subjects with event [1]
8 (17.4%) n (%): Tachycardia, subjects with event [1]
4 E: Skin and subcutaneous tissue disorders, number of occurrences [1]
19 (41.3%) n (%): Cardiac disorders, subjects with event [1]
41 (89.1%) n (%): Psychiatric disorders, subjects with event [1]
12 (26.1%) n (%): General disorders and administration site conditions, subjects with event [1]
16 (34.8%) n (%): Hypervigilance, subjects with event [1]
16 E: Hypervigilance, number of occurrences [1]
3 (6.5%) n (%): Decreased appetite, subjects with event [1] | Dry throat, subjects with event [1] | Eye disorders, subjects with event [1] | Fatigue, subjects with event [1] | Feeling hot, subjects with event [1] | Hyperhidrosis, subjects with event [1] | Metabolism and nutrition disorders, subjects with event [1] | Nasal discomfort, subjects with event [1] | Throat irritation, subjects with event [1]
1 (2.2%) n (%): Abdominal pain, subjects with event [1] | Asthenia, subjects with event [1] | Back pain, subjects with event [1] | Blood pressure diastolic increased, subjects with event [1] | Change in sustained attention, subjects with event [1] | Chest discomfort, subjects with event [1] | Defaecation urgency, subjects with event [1] | Diarrhoea, subjects with event [1] | Disturbance in attention, subjects with event [1] | Dysmenorrhoea (menstrual cramps), subjects with event [1] | Eye irritation, subjects with event [1] | Flushing, subjects with event [1] | Haematoma, subjects with event [1] | Hypopnoea (shallow breathing), subjects with event [1] | Investigations, subjects with event [1] | Muscle twitching, subjects with event [1] | Nasal congestion, subjects with event [1] | Nausea, subjects with event [1] | Neck pain, subjects with event [1] | Obsessive-compulsive disorder, subjects with event [1] | Peripheral swelling, subjects with event [1] | Pharyngeal hypoaesthesia (numbness of throat), subjects with event [1] | Phonophobia (fear of loud noises), subjects with event [1] | Photophobia, subjects with event [1] | Skin erosion, subjects with event [1] | Testis discomfort, subjects with event [1] | Vessel puncture site bruise, subjects with event [1] | Vessel puncture site pain, subjects with event [1] | Visual impairment, subjects with event [1]
5 E: Musculoskeletal and connective tissue disorders, number of occurrences [1]
12 E: Respiratory, thoracic and mediastinal disorders, number of occurrences [1]
11 E: Palpitations, number of occurrences [1]
7 E: Headache, number of occurrences [1] | Sinus tachycardia, number of occurrences [1]
54 E: Psychiatric disorders, number of occurrences [1]
46 (100.0%) n (%): Any TEAE, subjects with event [1]
10 E: Gastrointestinal disorders, number of occurrences [1] | Nervous system disorders, number of occurrences [1]
1 E: Abdominal pain, number of occurrences [1] | Asthenia, number of occurrences [1] | Back pain, number of occurrences [1] | Blood pressure diastolic increased, number of occurrences [1] | Change in sustained attention, number of occurrences [1] | Chest discomfort, number of occurrences [1] | Defaecation urgency, number of occurrences [1] | Diarrhoea, number of occurrences [1] | Disturbance in attention, number of occurrences [1] | Dysmenorrhoea (menstrual cramps), number of occurrences [1] | Eye irritation, number of occurrences [1] | Flushing, number of occurrences [1] | Haematoma, number of occurrences [1] | Hypopnoea (shallow breathing), number of occurrences [1] | Investigations, number of occurrences [1] | Muscle twitching, number of occurrences [1] | Nasal congestion, number of occurrences [1] | Nausea, number of occurrences [1] | Neck pain, number of occurrences [1] | Obsessive-compulsive disorder, number of occurrences [1] | Peripheral swelling, number of occurrences [1] | Pharyngeal hypoaesthesia (numbness of throat), number of occurrences [1] | Phonophobia (fear of loud noises), number of occurrences [1] | Photophobia, number of occurrences [1] | Skin erosion, number of occurrences [1] | Testis discomfort, number of occurrences [1] | Vessel puncture site bruise, number of occurrences [1] | Vessel puncture site pain, number of occurrences [1] | Visual impairment, number of occurrences [1]
